One may read the IC50 as the point on the concentration scale where inhibition reaches its midpoint. Read a high IC50 as a need for much substance.

Our source for the IC50 values is patent US9777000B2, “Pyrazole derivative” (MOCHIDA PHARMACEUTICAL CO., LTD., priority 2013, dated 2017).

human PDE10, sequence (Q9Y233 whole entry): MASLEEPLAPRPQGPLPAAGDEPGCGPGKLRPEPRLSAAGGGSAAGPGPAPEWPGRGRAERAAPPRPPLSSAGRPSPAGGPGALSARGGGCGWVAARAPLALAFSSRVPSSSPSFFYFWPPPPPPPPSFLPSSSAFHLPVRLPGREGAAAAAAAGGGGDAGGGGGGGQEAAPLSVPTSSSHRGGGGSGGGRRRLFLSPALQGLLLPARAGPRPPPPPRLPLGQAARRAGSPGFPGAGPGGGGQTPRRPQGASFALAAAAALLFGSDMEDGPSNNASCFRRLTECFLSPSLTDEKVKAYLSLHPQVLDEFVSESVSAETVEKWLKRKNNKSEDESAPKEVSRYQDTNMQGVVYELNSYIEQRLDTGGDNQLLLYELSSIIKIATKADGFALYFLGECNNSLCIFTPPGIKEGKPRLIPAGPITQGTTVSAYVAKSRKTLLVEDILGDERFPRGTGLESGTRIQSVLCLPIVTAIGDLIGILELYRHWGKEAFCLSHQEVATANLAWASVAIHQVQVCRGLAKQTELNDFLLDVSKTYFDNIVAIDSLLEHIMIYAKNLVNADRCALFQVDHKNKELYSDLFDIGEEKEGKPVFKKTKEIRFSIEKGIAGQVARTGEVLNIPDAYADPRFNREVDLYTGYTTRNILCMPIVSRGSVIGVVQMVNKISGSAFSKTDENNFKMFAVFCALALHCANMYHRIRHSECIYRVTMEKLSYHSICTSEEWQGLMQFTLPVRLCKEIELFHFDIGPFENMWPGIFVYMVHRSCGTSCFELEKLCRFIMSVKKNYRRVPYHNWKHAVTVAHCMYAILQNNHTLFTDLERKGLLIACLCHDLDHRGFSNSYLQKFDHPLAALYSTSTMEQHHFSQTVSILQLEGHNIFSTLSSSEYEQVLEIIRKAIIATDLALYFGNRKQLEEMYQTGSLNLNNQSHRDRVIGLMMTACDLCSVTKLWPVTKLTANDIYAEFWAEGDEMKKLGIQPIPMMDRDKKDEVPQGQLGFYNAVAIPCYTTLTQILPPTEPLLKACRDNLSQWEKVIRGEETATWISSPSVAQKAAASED

This assay concerns the target human PDE10 (Homo sapiens (Human), UniProt Q9Y233). The assay is described as follows: Evaluation of enzyme inhibitory activity: human PDE10 inhibitory effect (IMAP TR-FRET). The assay is classed as biochemical. The note with it: cAMP substrate. On the procedure: (Evaluation of Enzyme Inhibitory Activity: Human PDE10 Inhibitory Effect)
IMAP TR-FRET Phosphodiersterase Evaluation Assay Kit (Molecular Device) was used for the measurement. Ten μL of a diluted test compound having each concentration and 5 μL of the enzyme PDE10 (BPA Bioscience) that had been diluted to 2 ng/mL with 1×IMAP Reaction Buffer (prepared with 5×included with the kit, 10 mM Tris-HCl, pH=7.2, 10 mM MgCl2, 0.05% NaN3, and 0.1% BSA) containing 0.1% BSA were added to a 384-well plate (Corning). The obtained mixture was then pre-incubated at room temperature for 5 minutes. Thereafter, 5 μL of cAMP substrate solution which was included with the kit and diluted to 400 nM with 1×IMAP Reaction Buffer containing 0.1% BSA, was added to the reaction solution, and the obtained mixture was reacted at room temperature for 60 minutes. Thereafter, 60 μL of an IMAP TR-FRET Binding solution included with the kit was further added to the reaction solution, and the obtained mixture was then left for 3 hours or more. Subsequently, using ARVO SX (PerkinElmer), the fluorescent intensity of Terbium (Emission=490 nm) and TR-FRET (Emission=520 nm) in the reaction solution were measured at an excitation wavelength of 340 nm, so as to calculate the amount of the generated 5′-AMP. The count of a well to which a solvent had been added instead of the test compound was set at 0%, and the count of a well to which the enzyme PDE10 had not been added was set at 100%. Thus, the inhibitory activity of each test compound was calculated.
The PDE10 inhibitory activity of the test compound was indicated with an IC50 value. […] The test compounds are shown in Table 3 (Table 3-1 and Table 3-2).
(TR-FRET usually uses a lanthanide donor and a delayed reading to cut background.)
The compound `Cc1ccnc(-c2cnn(C)c2C(=O)Nc2cc3nc(-c4ccccc4)nn3cc2F)n1` [Example 3.43, N-(6-fluoro-2-phenyl-[1,2,4]triazolo[1,5-a]pyridin-7-yl)-1-methyl-4-(4-methylpyrimidin-2-yl)-1H-pyrazole-5-carboxamide] returned a 50% inhibitory concentration (IC50) of under 5 nM. As for `Cc1cc(C)nc(-c2cnn(C)c2C(=O)Nc2cc3nc(-c4ccccc4)nn3cc2F)n1` [Example 3.44, 4-(4,6-dimethylpyrimidin-2-yl)-N-(6-fluoro-2-phenyl-[1,2,4]triazolo[1,5-a]pyridin-7-yl)-1-methyl-1H-pyrazole-5-carboxamide], the figure is under 5 nM; as for `Cc1ccc(-c2cnn(C)c2C(=O)Nc2cc3nc(-c4ccccc4)nn3cc2F)nn1` [Example 3.45, N-(6-fluoro-2-phenyl-[1,2,4]triazolo[1,5-a]pyridin-7-yl)-1-methyl-4-(6-methylpyridazin-3-yl)-1H-pyrazole-5-carboxamide], under 5 nM. Compound `Cc1cnnc(-c2cnn(C)c2C(=O)Nc2cc3nc(-c4ccccc4)nn3cc2F)c1` [Example 3.46, N-(6-fluoro-2-phenyl-[1,2,4]triazolo[1,5-a]pyridin-7-yl)-1-methyl-4-(5-methylpyridazin-3-yl)-1H-pyrazole-5-carboxamide] gave an IC50 of under 5 nM. To `Cn1ncc(-c2cccnn2)c1C(=O)Nc1cc2nc(-c3ccccc3)nn2cc1F` [Example 3.47, N-(6-fluoro-2-phenyl-[1,2,4]triazolo[1,5-a]pyridin-7-yl)-1-methyl-4-(pyridazin-3-yl)-1H-pyrazole-5-carboxamide] belongs under 5 nM. To `Cn1cnc(-c2cnn(C)c2C(=O)Nc2cc3nc(-c4ccccc4)nn3cc2F)c1` [Example 3.48, N-(6-fluoro-2-phenyl-[1,2,4]triazolo[1,5-a]pyridin-7-yl)-1-methyl-4-(1-methyl-1H-imidazol-4-yl)-1H-pyrazole-5-carboxamide] belongs under 5 nM; to `Cc1ncc(C)c(-c2cnn(C)c2C(=O)Nc2cc3nc(-c4cccnc4)nn3cc2F)n1` [Example 3.49, 4-(2,5-dimethylpyrimidin-4-yl)-N-(6-fluoro-2-(pyridin-3-yl)-[1,2,4]triazolo[1,5-a]pyridin-7-yl)-1-methyl-1H-pyrazole-5-carboxamide], under 5 nM. As for `Cc1ccc(-c2cnn(C)c2C(=O)Nc2cc3nc(-c4ccccc4)nn3cc2F)nc1` [Example 3.51, N-(6-fluoro-2-phenyl-[1,2,4]triazolo[1,5-a]pyridin-7-yl)-1-methyl-4-(5-methylpyridin-2-yl)-1H-pyrazole-5-carboxamide], the figure is under 5 nM.

`COc1ccnc(-c2cnn(C)c2C(=O)Nc2cc3nc(-c4ccccc4)nn3cc2F)c1` [Example 3.52, N-(6-fluoro-2-phenyl-[1,2,4]triazolo[1,5-a]pyridin-7-yl)-4-(4-methoxypyridin-2-yl)-1-methyl-1H-pyrazole-5-carboxamide] yielded an IC50 of under 5 nM. With `Cc1cc(C)nc(-c2cnn(C)c2C(=O)Nc2cc3nc(-c4ccc(F)cc4)nn3cc2F)c1` [Example 3.54, 4-(4,6-dimethylpyridin-2-yl)-N-(6-fluoro-2-(4-fluorophenyl)-[1,2,4]triazolo[1,5-a]pyridin-7-yl)-1-methyl-1H-pyrazole-5-carboxamide], the IC50 is under 5 nM. To `Cc1ccnc(-c2cnn(C)c2C(=O)Nc2ccn3nc(N4CCC[C@@H]4C)nc3c2)c1` [Example 4.4, (S)-1-methyl-4-(4-methylpyridin-2-yl)-N-(2-(2-methylpyrrolidin-1-yl)-[1,2,4]triazolo[1,5-a]pyridin-7-yl)-1H-pyrazole-5-carboxamide] belongs under 5 nM; to `COc1ccnc(-c2cnn(C)c2C(=O)Nc2ccn3nc(N4CCC[C@@H]4C)nc3c2)c1` [Example 4.5, (S)-4-(4-methoxypyridin-2-yl)-1-methyl-N-(2-(2-methylpyrrolidin-1-yl)-[1,2,4]triazolo[1,5-a]pyridin-7-yl)-1H-pyrazole-5-carboxamide], under 5 nM; to `Cc1cncc(-c2cnn(C)c2C(=O)Nc2ccn3nc(N4CCC[C@@H]4C)nc3c2)n1` [Example 4.6, (S)-1-methyl-4-(6-methylpyrazin-2-yl)-N-(2-(2-methylpyrrolidin-1-yl)-[1,2,4]triazolo[1,5-a]pyridin-7-yl)-1H-pyrazole-5-carboxamide], under 5 nM.

The compound `Cc1cccc(-c2cnn(C)c2C(=O)Nc2ccn3nc(N4CCC[C@@H]4C)nc3c2)n1` [Example 4.7, (S)-1-methyl-4-(6-methylpyridin-2-yl)-N-(2-(2-methylpyrrolidin-1-yl)-[1,2,4]triazolo[1,5-a]pyridin-7-yl)-1H-pyrazole-5-carboxamide] showed an IC50 of under 5 nM. To `Cc1cc(C)nc(-c2cnn(C)c2C(=O)Nc2ccn3nc(N4CCC[C@@H]4C)nc3c2)c1` [Example 4.8, (S)-4-(4,6-dimethylpyridin-2-yl)-1-methyl-N-(2-(2-methylpyrrolidin-1-yl)-[1,2,4]triazolo[1,5-a]pyridin-7-yl)-1H-pyrazole-5-carboxamide] belongs under 5 nM. To `Cc1sc(-c2cnn(C)c2C(=O)Nc2ccn3nc(N4CCC[C@@H]4C)nc3c2)nc1C(F)F` [Example 4.9, (S)-4-(4-(difluoromethyl)-5-methylthiazol-2-yl)-1-methyl-N-(2-(2-methylpyrrolidin-1-yl)-[1,2,4]triazolo[1,5-a]pyridin-7-yl)-1H-pyrazole-5-carboxamide] belongs under 5 nM; to `Cn1ncc(-c2nc(C(F)F)cs2)c1C(=O)Nc1ccn2nc(N3CC[C@@H](F)C3)nc2c1` [Example 4.12, (R)-4-(4-(difluoromethyl)thiazol-2-yl)-N-(2-(3-fluoropyrrolidin-1-yl)-[1,2,4]triazolo[1,5-a]pyridin-7-yl)-1-methyl-1H-pyrazole-5-carboxamide], under 5 nM. `Cn1ncc(-c2nc(C(F)(F)F)cs2)c1C(=O)Nc1ccn2nc(N3CC[C@@H](F)C3)nc2c1` [Example 4.13, (R)-N-(2-(3-fluoropyrrolidin-1-yl)-[1,2,4]triazolo[1,5-a]pyridin-7-yl)-1-methyl-4-(4-(trifluoromethyl)thiazol-2-yl)-1H-pyrazole-5-carboxamide]: the concentration for half-maximal inhibition (IC50) was under 5 nM. As for `Cn1ncc(-c2nc(C(F)F)cs2)c1C(=O)Nc1ccn2nc(N3CC[C@H](F)C3)nc2c1` [Example 4.15, (S)-4-(4-(difluoromethyl)thiazol-2-yl)-N-(2-(3-fluoropyrrolidin-1-yl)-[1,2,4]triazolo[1,5-a]pyridin-7-yl)-1-methyl-1H-pyrazole-5-carboxamide], the figure is under 5 nM; as for `Cn1ncc(-c2cccc(C(F)(F)F)n2)c1C(=O)Nc1ccn2nc(N3CC[C@H](F)C3)nc2c1` [Example 4.16, (S)-N-(2-(3-fluoropyrrolidin-1-yl)-[1,2,4]triazolo[1,5-a]pyridin-7-yl)-1-methyl-4-(6-(trifluoromethyl)pyridin-2-yl)-1H-pyrazole-5-carboxamide], under 5 nM; as for `Cc1ccnc(-c2cnn(C)c2C(=O)Nc2ccn3nc(N4CC[C@H](F)C4)nc3c2)c1` [Example 4.17, (S)-N-(2-(3-fluoropyrrolidin-1-yl)-[1,2,4]triazolo[1,5-a]pyridin-7-yl)-1-methyl-4-(4-methylpyridin-2-yl)-1H-pyrazole-5-carboxamide], under 5 nM.
